Experimental findings from PubChem BioAssay (NCI) are described below.

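All cell lines were grown in 96-well plates and treated with compound for 48 hours. GI50: concentration for 50% inhibition of growth. TGI: concentration producing complete growth inhibition.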 Where only a bound is given, the exact number is not on record here.

Holding throughout (assay): DTP human tumour cell line panel, 48 h
Test [1] relates to HCT-116 colon.
For test [2], the system named is HT29 colon.
In test [3] the test system is NCI-H23 lung.
For test [4], the system named is OVCAR-8 ovarian.
The subject of test [5] is SF-268 CNS.
Test [6] concerns SF-539 CNS.
In test [7] the test system is MCF7 breast.
The test system of test [8] is NCI/ADR-RES ovarian.
For test [9], the system named is SK-MEL-28 melanoma.
Test [10] relates to UO-31 renal.

What is called TGI is the concentration giving total growth inhibition. Regarding `CCOC(=O)C1CCn2c(nc3c2c(=O)n(C)c(=O)n3C)S1` (centres undefined), the TGI in [1], in test [2], in test [3], in [4], in test [5] and in test [6] was more than 100 µM in each case.
As for `CCC(C)C1NC(=O)C2CCCN2C(=O)C(CC2CO2)OC(=O)CCNC(=O)C(C)N(C)C(=O)C(C(C)C)N(C)C1=O` (centres undefined), the TGI in test [2], in test [7], in [3], in [8], in [4] and in test [5] was more than 100 µM each time. Further, the TGI in [6] is more than 100 µM; in test [9], more than 100 µM; in test [10], 15 µM.
For `CC1(C)CCC2(C(=O)OC3OC(CO)C(O)C(O)C3O)CCC3(C)C(=CCC4C5(C)CCC(OC6OC(CO)C(O)C(O)C6O)C(C)(C)C5CCC43C)C2C1` (centres undefined), the TGI in test [1] is more than 25 µM; in test [2] it was more than 25 µM; in [7] it was more than 25 µM; in test [3], more than 25 µM; in test [4], more than 25 µM; in test [5] it was 21.8 µM. The values for the TGI in test [6], in test [9] and in test [10] were 12.8 µM, more than 25 µM and more than 25 µM, respectively.
Turning to `CC(=O)OC1CC(O)CC2=CCC3C4CCC(C(C)(O)C(O)CC5COC(=O)C5C)C4(C)CCC3C21C` (centres undefined), the total growth inhibition concentration (TGI) in [1], in test [2], in [7], in test [3], in [4] and in test [5] was more than 25 µM throughout. The TGI in test [6], in [9] and in test [10] was more than 25 µM in each case.
What is called GI50 is the concentration at which growth is held to half of that of the control. For `O=C1c2cc3c(cc2-c2c1c1ccc(Cl)cc1c(=O)n2C[C@H](O)[C@@H](O)[C@H](O)CO)OCO3`, the GI50 in [2] is 0.0498 µM; in test [7] it was less than 0.01 µM; in [3], 0.0293 µM; in [8], 0.0335 µM; in [4] it was 0.0633 µM; in test [5], 0.0155 µM. Also, the results for the GI50 in test [6], in [9] and in test [10] were 0.016 µM, 0.0997 µM and 0.0297 µM, respectively. In addition, the TGI is 0.283 µM in [2]; 0.178 µM in test [7]; 0.193 µM in test [3]; 1.91 µM in test [8]; more than 100 µM in test [4]; more than 100 µM in test [5]. Also, the total growth inhibition concentration (TGI) in test [6] is 0.0602 µM; in [9] it was 1.16 µM; in [10], 0.125 µM.
In the case of `CCOC(=O)/C(=C\NCC(OCC)OCC)c1nc2ccccc2[nH]1`, the total growth inhibition concentration (TGI) is more than 100 µM in test [1]; 71.1 µM in test [2]; more than 100 µM in [7]; 56.4 µM in [3]; 24.4 µM in test [8]; more than 100 µM in [4]. Moreover, the TGI was more than 100 µM in test [5], more than 100 µM in test [6], 77 µM in test [9] and more than 100 µM in [10].
Turning to `COC(=O)C1C(O)CCC2CN3CCc4c([nH]c5cccc(OC)c45)C3CC21` (centres undefined), the TGI in test [1], in [2], in [7], in [3], in test [4] and in [5] was more than 100 µM in each case. The TGI in test [6], in [9] and in test [10] was more than 100 µM throughout.
Regarding `O=S(=O)(/N=C(\NO)Nc1ccc(Cl)cc1)c1ccc(S(=O)(=O)c2ccccc2)s1`, the TGI in test [1] was 30.4 µM; in test [2] it was 57.7 µM; in test [7], more than 100 µM; in test [3] it was 52.1 µM; in [8], more than 100 µM; in [4], 89.6 µM. Besides, the TGI in test [5] is 90.7 µM; in [6] it was 63.7 µM; in [9], 40.7 µM; in test [10], 53.8 µM.
`Cc1cc(O)c(C(C)C)cc1CN1CCCCC1`: the total growth inhibition concentration (TGI) in [1], in [2], in [7], in [3], in [8] and in test [4] was more than 100 µM in each case. Moreover, the concentration for total growth inhibition (TGI) in test [5], in test [6], in test [9] and in test [10] was more than 100 µM in each case.
For `C/C(=N\NC(=O)c1cccnc1)c1cccc(/C(C)=N/NC(=O)c2cccnc2)n1`, the GI50 in test [1] was 4.24 µM; in test [2], 2.63 µM; in test [9] it was 9.56 µM. For the same compound, the TGI was more than 100 µM in test [1]; more than 100 µM in test [2]; more than 100 µM in [3]; 19.3 µM in test [4]; 30.6 µM in test [5]; 13.6 µM in test [6]. The TGI is more than 100 µM in test [9] and 80.7 µM in test [10].
`O=S(=O)(O)c1cccc2c(N=Nc3c(O)ccc4ccccc34)cccc12`: the concentration for total growth inhibition (TGI) in test [1], in test [2], in test [3], in test [8], in test [4] and in test [5] was more than 100 µM each time. The TGI in test [9] and in [10] was more than 100 µM in each case.
Take `CS(=O)(=O)c1nc(-c2cc3c(c(S(C)(=O)=O)n2)CCCC3)cc2c1CCCC2`: the TGI in [1] was more than 100 µM; in test [2], more than 100 µM; in test [7], more than 100 µM; in test [3], more than 100 µM; in test [8], more than 100 µM; in test [4], more than 69.5 µM. The concentration for total growth inhibition (TGI) in [5] is more than 47.3 µM; in [6] it was more than 100 µM; in test [9], more than 100 µM; in test [10], 0.111 µM.
`O=[N+]([O-])c1ccc2c(c1)c(N=NC(=S)NC1CCCCC1)c(O)n2CN1CCOCC1`: the TGI in test [1] was determined as 16.2 µM; in test [2], 17.9 µM; in test [7] it was 17.4 µM; in [3], 21.4 µM; in test [8] it was 18.7 µM; in test [4] it was 17.4 µM. For the same compound, the TGI in test [5] was 19.2 µM; in test [6] it was 25.4 µM; in [9], 25.6 µM; in test [10] it was 18.4 µM.
